Experimental data as given in patent US10294234B2, “HIV inhibitor compounds” (priority 2017, dated 2019).
Read-outs that look alike come from different tables or passages of the source.

Tested on: HIV-1 (IIIB) in MT-4 cells
Assay: MT-4 HIV assay
Assay type: cell-based
Conditions: Human immunodeficiency virus 1, MT4, 120 h
In short: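 Antiviral activity was read by Cell Titer Glo after a 5-day, 37 °C culture of MT-4 cells pre-infected with a 1:250 dilution of HIV-1 (IIIB). Compounds were tested as threefold dilution series in complete RPMI. Controls were no drug, mock infection and 5 uM AZT.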

[1] = HIV-1 (IIIB), MT-4 cells, 5 days, Cell Titer Glo, read-out: EC50

With `COC(=O)N[C@H](C(=O)N[C@@H](Cc1ccc(C#Cc2ccc(N3CCN(C4COC4)CC3)nc2)cc1)[C@@H](O)CN(Cc1c(F)cc(-c2ccn(C3CC3)n2)cc1F)NC(=O)[C@@H](NC(=O)OC)C(C)(C)C(F)(F)F)C(C)(C)C(F)(F)F` [Example 92, Methyl ((5S,8S,9S,14S)-11-(4-(1-cyclopropyl-1H-pyrazol-3-yl)-2,6-difluorobenzyl)-16,16,16-trifluoro-9-hydroxy-15,15-dimethyl-8-(4-((6-(4-(oxetan-3-yl)piperazin-1-yl)pyridin-3-yl)ethynyl)benzyl)-3,6,13-trioxo-5-(1,1,1-trifluoro-2-methylpropan-2-yl)-2-oxa-4,7,11,12-tetraazahexadecan-14-yl)carbamate] the EC50 [1] was 3.72 nM.
`COC(=O)N[C@H](C(=O)N[C@@H](Cc1ccc(C#Cc2ccc(N3CC4CC(C3)CN(C3COC3)C4)nc2)cc1)[C@@H](O)CN(Cc1c(F)cc(-c2cnn(C(F)F)c2)cc1F)NC(=O)[C@@H](NC(=O)OC)C(C)(C)C(F)(F)F)C(C)(C)C(F)(F)F` [Example 65, Methyl ((5S,8S,9S,14S)-11-(4-(1-(difluoromethyl)-1H-pyrazol-4-yl)-2,6-difluorobenzyl)-16,16,16-trifluoro-9-hydroxy-15,15-dimethyl-8-(4-((6-(7-(oxetan-3-yl)-3,7-diazabicyclo[3.3.1]nonan-3-yl)pyridin-3-yl)ethynyl)benzyl)-3,6,13-trioxo-5-(1,1,1-trifluoro-2-methylpropan-2-yl)-2-oxa-4,7,11,12-tetraazahexadecan-14-yl)carbamate] was tested, and the EC50 was 7.7 nM.
`COC(=O)N[C@H](C(=O)N[C@@H](Cc1ccc(C#Cc2ccc(N3CC4CC(C3)N4C3COC3)nc2)cc1)[C@@H](O)CN(Cc1c(F)cc(-c2cc(F)ccn2)cc1F)NC(=O)[C@@H](NC(=O)OC)C(C)(C)C(F)(F)F)C(C)(C)C(F)(F)F` [Example 140, Methyl ((5S,10S,11S,14S)-8-(2,6-difluoro-4-(4-fluoropyridin-2-yl)benzyl)-16,16,16-trifluoro-10-hydroxy-15,15-dimethyl-11-(4-((6-(6-(oxetan-3-yl)-3,6-diazabicyclo [3.1.1]heptan-3-yl)pyridin-3-yl)ethynyl)benzyl)-3,6,13-trioxo-5-(1,1,1-trifluoro-2-methylpropan-2-yl)-2-oxa-4,7,8,12-tetraazahexadecan-14-yl)carbamate] gave an EC50 [1] of 5.09 nM.
Work on `COC(=O)N[C@H](C(=O)N[C@@H](Cc1ccc(C#Cc2cnc(N3CC4CCC(C3)N4C3COC3)c(C)c2)cc1)[C@@H](O)CN(Cc1c(F)cc(-c2ccn(C(F)F)n2)cc1F)NC(=O)[C@@H](NC(=O)OC)C(C)(C)C(F)(F)F)C(C)(C)C(F)(F)F` [Example 150, Methyl ((5S,8S,9S,14S)-11-(4-(1-(difluoromethyl)-1H-pyrazol-3-yl)-2,6-difluorobenzyl)-16,16,16-trifluoro-9-hydroxy-15,15-dimethyl-8-(4-((5-methyl-6-(8-(oxetan-3-yl)-3,8-diazabicyclo[3.2.1]octan-3-yl)pyridin-3-yl)ethynyl)benzyl)-3,6,13-trioxo-5-(1,1,1-trifluoro-2-methylpropan-2-yl)-2-oxa-4,7,11,12-tetraazahexadecan-14-yl)carbamate] yielded an EC50 [1] of 5.86 nM.
`COC(=O)N[C@H](C(=O)N[C@@H](Cc1ccc(C#Cc2ccc(N3CC4CCC(C3)N4C3COC3)nc2)cc1)[C@@H](O)CN(Cc1c(F)cc(-c2ccccn2)cc1Cl)NC(=O)[C@@H](NC(=O)OC)C(C)(C)CF)C(C)(C)CF` [Example 234, methyl ((5S,8S,9S,14S)-11-(2-chloro-6-fluoro-4-(pyridin-2-yl)benzyl)-16-fluoro-5-(1-fluoro-2-methylpropan-2-yl)-9-hydroxy-15,15-dimethyl-8-(4-((6-(8-(oxetan-3-yl)-3,8-diazabicyclo[3.2.1]octan-3-yl)pyridin-3-yl)ethynyl)benzyl)-3,6,13-trioxo-2-oxa-4,7,11,12-tetraazahexadecan-14-yl)carbamate] showed an EC50 [1] of 2.54 nM.
`COC(=O)N[C@H](C(=O)N[C@@H](Cc1ccc(C#Cc2ccc(N3CC4CCC(C3)N4C3COC3)cc2)cc1)[C@@H](O)CN(Cc1c(F)cc(-c2ccn(C(F)F)n2)cc1F)NC(=O)[C@@H](NC(=O)OC)C(C)(C)C(F)(F)F)C(C)(C)C(F)(F)F` [Example 178, Methyl ((5S,8S,9S,14S)-11-(4-(1-(difluoromethyl)-1H-pyrazol-3-yl)-2,6-difluorobenzyl)-16,16,16-trifluoro-9-hydroxy-15,15-dimethyl-8-(4-((4-(8-(oxetan-3-yl)-3,8-diazabicyclo[3.2.1]octan-3-yl)phenyl)ethynyl)benzyl)-3,6,13-trioxo-5-(1,1,1-trifluoro-2-methylpropan-2-yl)-2-oxa-4,7,11,12-tetraazahexadecan-14-yl)carbamate] gave an EC50 [1] of 10.3 nM.
For `CC(C)([C@H](NC(=O)OC1CC1)C(=O)N[C@@H](Cc1ccc(C#Cc2ccc(N3CC4CCC(C3)N4C3COC3)nc2)cc1)[C@@H](O)CN(Cc1c(F)cc(-c2ccn(C(F)F)n2)cc1F)NC(=O)[C@@H](NC(=O)OC1CC1)C(C)(C)C(F)(F)F)C(F)(F)F` [Example 156, Cyclopropyl ((2S)-1-(2-((2S,3S)-3-((S)-2-((cyclopropoxycarbonyl)amino)-4,4,4-trifluoro-3,3-dimethylbutanamido)-2-hydroxy-4-(4-((6-(8-(oxetan-3-yl)-3,8-diazabicyclo[3.2.1]octan-3-yl)pyridin-3-yl)ethynyl)phenyl)butyl)-2-(4-(1-(difluoromethyl)-1H-pyrazol-3-yl)-2,6-difluorobenzyl)hydrazinyl)-4,4,4-trifluoro-3,3-dimethyl-1-oxobutan-2-yl)carbamate], the EC50 [1] was 17 nM.
Compound `COC(=O)N[C@H](C(=O)N[C@@H](Cc1ccc(C#Cc2ccc(N3CC4CCC(C3)N4C(=O)N(C)C)nc2)cc1)[C@@H](O)CN(Cc1c(F)cc(-c2cnn(C(F)F)c2)cc1F)NC(=O)[C@@H](NC(=O)OC)C(C)(C)C(F)(F)F)C(C)(C)C(F)(F)F` [Example 17, Methyl ((5S,8S,9S,14S)-11-(4-(1-(difluoromethyl)-1H-pyrazol-4-yl)-2,6-difluorobenzyl)-8-(4-((6-(8-(dimethylcarbamoyl)-3,8-diazabicyclo[3.2.1]octan-3-yl)pyridin-3-yl)ethynyl)benzyl)-16,16,16-trifluoro-9-hydroxy-15,15-dimethyl-3,6,13-trioxo-5-(1,1,1-trifluoro-2-methylpropan-2-yl)-2-oxa-4,7,11,12-tetraazahexadecan-14-yl)carbamate] has an EC50 of 7.24 nM.
Compound `COC(=O)N[C@H](C(=O)N[C@@H](Cc1ccc(C#Cc2ccc(N3CC4CCC(C3)N4[C@H]3CCOC3)nc2)cc1)[C@@H](O)CN(Cc1c(F)cc(-c2ccn(C(F)F)n2)cc1F)NC(=O)[C@@H](NC(=O)OC)C(C)(C)C(F)(F)F)C(C)(C)C(F)(F)F` [Example 142, Methyl ((5S,8S,9S,14S)-11-(4-(1-(difluoromethyl)-1H-pyrazol-3-yl)-2,6-difluorobenzyl)-16,16,16-trifluoro-9-hydroxy-15,15-dimethyl-3,6,13-trioxo-8-(4-((6-(8-((S)-tetrahydrofuran-3-yl)-3,8-diazabicyclo[3.2.1]octan-3-yl)pyridin-3-yl)ethynyl)benzyl)-5-(1,1,1-trifluoro-2-methylpropan-2-yl)-2-oxa-4,7,11,12-tetraazahexadecan-14-yl)carbamate] has an EC50 [1] of 8.78 nM.
Compound `CCC(=O)N[C@H](C(=O)N[C@@H](Cc1ccc(C#Cc2cnc(N3CC4CCC(C3)N4C3COC3)nc2)cc1)[C@@H](O)CN(Cc1c(F)cc(-c2ccn(C(F)F)n2)cc1F)NC(=O)[C@@H](NC(=O)CC)C(C)(C)C(F)(F)F)C(C)(C)C(F)(F)F` [Example 181, (2S)—N-((2S,3S)-4-(1-(4-(1-(difluoromethyl)-1H-pyrazol-3-yl)-2,6-difluorobenzyl)-2-((S)-4,4,4-trifluoro-3,3-dimethyl-2-propionamidobutanoyl)hydrazinyl)-3-hydroxy-1-(4-((2-(8-(oxetan-3-yl)-3,8-diazabicyclo[3.2.1]octan-3-yl)pyrimidin-5-yl)ethynyl)phenyl)butan-2-yl)-4,4,4-trifluoro-3,3-dimethyl-2-propionamidobutanamide] has an EC50 [1] of 8.5 nM.
In the case of `COC(=O)N[C@H](C(=O)NN(Cc1c(F)cc(-c2cnn(C(F)F)c2)cc1F)C[C@H](O)[C@H](Cc1ccc(C#Cc2ccc(N3CC4CCC(C3)N4C3COC3)nc2)cc1)NC(=O)[C@@H](NC(=O)OC)C(C)(C)C(F)(F)F)C(C)(C)CF` [Example 80, Methyl ((5S,8S,9S,14S)-11-(4-(1-(difluoromethyl)-1H-pyrazol-4-yl)-2,6-difluorobenzyl)-16-fluoro-9-hydroxy-15,15-dimethyl-8-(4-((6-(8-(oxetan-3-yl)-3,8-diazabicyclo [3.2.1]octan-3-yl)pyridin-3-yl)ethynyl)benzyl)-3,6,13-trioxo-5-(1,1,1-trifluoro-2-methylpropan-2-yl)-2-oxa-4,7,11,12-tetraazahexadecan-14-yl)carbamate], the EC50 [1] is reported as 3.13 nM.
With `COC(=O)N[C@H](C(=O)N[C@@H](Cc1ccc(C#Cc2cnc(N3CC4CCC(C3)N4C3COC3)nc2)cc1)[C@@H](O)CN(Cc1ccc(-c2ccn(C3CC3)n2)cc1)NC(=O)[C@@H](NC(=O)OC)C(C)(C)C(F)(F)F)C(C)(C)C(F)(F)F` [Example 33, Methyl ((5S,8S,9S,14S)-11-(4-(1-cyclopropyl-1H-pyrazol-3-yl)benzyl)-16,16,16-trifluoro-9-hydroxy-15,15-dimethyl-8-(4-((2-(8-(oxetan-3-yl)-3,8-diazabicyclo [3.2.1]octan-3-yl)pyrimidin-5-yl)ethynyl)benzyl)-3,6,13-trioxo-5-(1,1,1-trifluoro-2-methylpropan-2-yl)-2-oxa-4,7,11,12-tetraazahexadecan-14-yl)carbamate] the EC50 [1] was 4.71 nM.
